What all share (format): cell-based, human
The subject of series [1] is hsa-miR-21-3p. Nature of the series: miRNA microarray profiling of berberine-treated HepG2 cells. Conditions: HepG2, 40 μM berberine, 2 h and 4 h vs control cells.
Experimental: A 50 mM stock solution of berberine chloride (Sigma-Aldrich) was prepared in dimethyl sulfoxide (DMSO). Cells were treated with 40 μM of berberine chloride or 0.08% DMSO as the control.
The miRNA profiling was performed using an Agilent human miRNA Microarray R14 V2 containing 866 human miRNAs. […] Microarrays were scanned following the Agilent microarray scanner protocol, and image analysis and quantification were performed using the Agilent Feature Extraction software (Agilent Technologies). […]
The subject of series [2] is intracellular malonyl-CoA. Description: Measurement of intracellular malonyl-CoA concentration in HepG2 cells. Conditions: HepG2, 72-h mimic transfection. As for the experimental part:
After transfection with 50 nM of miR-21-3p mimic or the negative-control mimic for 72 h, the PHH cells and HepG2 cells were trypsinized. The intracellular malonyl-CoA concentration was measured using the malonyl-CoA ELISA Kit (MyBioSource) according to the manufacturer's instructions.

Series [3] has as its system DGAT2. Nature of the series: qRT-PCR mRNA expression in HepG2 cells. Conditions: HepG2, miR-21-3p over-expressed, 24 h. Here is the method:
(§1) The human HepG2 cells and HEK 293T cells used in the following examples were originally obtained from the American Tissue Culture Collection (ATCC, USA). The human HCC HepG2 cell line was cultured in Minimum Essential Medium Eagle (Sigma) supplemented with 10% fetal bovine serum (FBS) (Invitrogen), 2.2 g/L of sodium bicarbonate (Sigma), 0.1 mM of non-essential amino acids (Caisson), 1 mM of sodium pyruvate (Invitrogen), and 10 of ml/L penicillin-streptomycin-amphotericin solution (Biological Industries). Human HEK-293T cells were maintained in high-glucose Dulbecco's modified eagle medium (Invitrogen) supplemented with 10% FBS and 3.7 g/L of sodium bicarbonate (Sigma). Both cell lines were cultured at 37° C. and 5% CO2.
(§2) Total RNA was extracted using a TRIZOL reagent (Invitrogen) according to the manufacturer's protocol. The total RNA quantity was measured using a NanoDrop ND-1000 spectrophotometer (Nanodrop Technologies). The total RNA quality and integrity were assayed using an Agilent 2100 bioanalyzer with an RNA 6000 nano kit (Agilent Technologies).
(§3) Total RNAs (1 μg) were reverse-transcribed into cDNA by using M-MuLV Reverse Transcriptase (Thermo) and Oligo(dT)12-18 primers (Invitrogen) according to the manufacturer's protocol. The cDNA were then used for a real-time PCR with a LightCycler 480 SYBR Green I Master (Roche) by using primers shown in the following Table 1. The gene expression levels were normalized to GAPDH levels.
(§4) The HepG2 cells were transfected at a density of 5×10^4 cells per well in a 24-well culture plates with either 50 nM of hsa-miR-21-3p (miR-21-3p mimic) or negative-control mimic (NC mimic), or with either 100 nM of hsa-miR-21-3p inhibitor (miR-21-3p inhibitor) or negative-control inhibitor (NC inhibitor) by using the DharmaFECT 4 transfection reagent (Thermo Scientific Dharmacon) according to the manufacturer's instructions. Cells were incubated for 24 h or 48 h with a microRNA mimic or inhibitor prior to RNA purification for gene expression analysis, and were incubated for 72 h for protein expression analysis.
For orientation: Quantitative PCR measures a nucleic acid by following its amplification.

Series [4] deals with DIDO1. Description: qRT-PCR mRNA expression in HepG2 cells. Conditions: HepG2, 50 nM mimic transfection, 24 hours. As for the experimental part:
as §1, §2, §3, §4

The subject of series [5] is NBPF8. Nature of the series: qRT-PCR mRNA expression in HepG2 cells. Conditions: HepG2, 50 nM mimic transfection, 24 hours. As for the experimental part:
as §1, §2, §3, §4

In series [6] the test system is EEF2K. Description: qRT-PCR mRNA expression in HepG2 cells. Conditions: HepG2, 50 nM mimic transfection, 24 hours. Here is the method:
as §1, §2, §3, §4

Series [7] concerns TMEM137. Nature of the series: qRT-PCR mRNA expression in HepG2 cells. Conditions: HepG2, 50 nM mimic transfection, 24 hours. As for the experimental part: as §1, §2, §3, §4
The test system of series [8] is MAT2A 3′ UTR. Nature of the series: Dual luciferase reporter assay in HepG2 cells. As for the experimental part:
(§5) Full-length 3′ UTRs of MAT2A and MAT2B were amplified from the genomic DNA of HepG2 cells through PCR.
(§6) The PCR products were then cloned into the pMIR-REPORT Luciferase miRNA Expression Reporter Vector (Invitrogen), and all inserted sequences in the 3′ UTR constructs were checked using the ABI PRISM DNA sequencer.
(§7) The mutagenesis of the target sequences of hsa-miR-21-3p in MAT2A and MAT2B 3′ UTRs was performed using the QuikChange site-directed mutagenesis kit (Agilent) according to the manufacturer's standard protocol.
(§8) All mutated sequences, including Site 1, Site 2 and the double mutation of the MAT2A and the 3′ UTR mutant construct of MAT2B, were checked through DNA sequencing.
(§9) The HEK-293T and HepG2 cells were seeded at a density of 5×10^4 cells per well in a 24-well culture plate the day before transfection. The HEK-293T and HepG2 cells were tri-transfected with (1) any one of the above-mentioned pMIR-REPORT-3′ UTR construction (300 ng), (2) the control Renilla luciferase reporter plasmid pRL-TK from Promega (10 ng), and (3) 50 nM of hsa-miR-21-3p mimic or negative-control mimic by using the Lipofectamine 2000 transfection reagent (Invitrogen) according to the manufacturer's instructions. Luciferase assays were performed after transfection for 48 h by using the Dual Luciferase reporter assay kit (Promega) and the Paradigm detection platform (Beckman) according to the manufacturer's protocol. The firefly luciferase activity was normalized relative to the Renilla luciferase activity.

In series [9] the test system is MAT2B 3′ UTR. Description: Dual luciferase reporter assay in HepG2 cells. As for the experimental part:
as §5, §6, §7, §8, §9
In general terms: In a reporter assay the amount or activity of a reporter protein is the signal.

Series [10] relates to MAT2A 3′ UTR. Description: Dual luciferase reporter assay in HEK 293T cells. As for the experimental part: as §5, §6, §7, §8, §9
In series [11] the test system is MAT2B 3′ UTR. Description: Dual luciferase reporter assay in HEK 293T cells. Here is the method:
as §5, §6, §7, §8, §9

Setting [12] is: HepG2, wild-type 3′ UTR, 50 nM mimic, 48 h.
The mark [13] stands for this setting: wild-type 3′ UTR, 50 nM mimic, 48 h.

The values below come from patent US9469854B2, “Pharmaceutical composition for treating liver diseases” (Academia Sinica, priority 2014, dated 2016).

Take `COc1ccc2cc3[n+](cc2c1OC)CCc1cc2c(cc1-3)OCO2` [berberine]: the “hsa-miR-21-3p expression increase (miRNA microarray)” value in [1] is on record as 4 fold.
Regarding “hsa-miR-21-3p (CAACACCAGUCGAUGGGCUGU; listed as RNA, chemistry not given here) [miR-21-3p mimic]”, the “intracellular malonyl-CoA concentration decrease” value in series [2] is reported as 1.6 fold. In [3], the “decrease in mRNA level of DGAT2” value was 2.3 fold. For the same compound, the “decrease in mRNA expression of DIDO1” value in series [4] is on record as under 50%. Besides, in [5], the “decrease in mRNA expression of NBPF8” value is under 50%. In [6], the “decrease in mRNA expression of EEF2K” value is on record as over 50%. In addition, the “decrease in mRNA expression of TMEM137” value in [7] is given as under 50%. Also, the “luciferase reporter expression decrease, Site 1 mutated MAT2A 3′ UTR” value in series [8] (HepG2, Site 1 (+180-200) mutated) is listed as 1.5 fold; in series [10] (Site 1 (+180-200) mutated) it was 1.5 fold. For the same compound, the “luciferase reporter expression decrease, MAT2A 3′ UTR” value was determined as 1.5 fold in [8] (setting [12]) and 1.6 fold in series [10] (setting [13]). Also, the “luciferase reporter expression change, Site 2 mutated MAT2A 3′ UTR” value in [8] (Site 2 (+1267-1288) mutated, cells not named in sentence (FIG. 5C: HEK293T and HepG2)) was “did not notably change”. For the same compound, the “luciferase reporter expression change, double-mutated MAT2A 3′ UTR” value in series [8] (both Site 1 and Site 2 mutated, cells not named in sentence (FIG. 5C: HEK293T and HepG2)) was “did not notably change”. Further, the “luciferase reporter expression change, mutated MAT2B 3′ UTR” value was “remained unchanged” in [9] (HepG2, seed match (+399-418) mutated) and “remained unchanged” in [11] (seed match (+399-418) mutated). For the same compound, the “luciferase reporter expression decrease, MAT2B 3′ UTR” value in series [9] (setting [12]) came to 1.4 fold; in series [11] (setting [13]), 2.3 fold.
